Test results taken from patent publication US12686846B2, “Plant sweet and yeast MSF transporter capable of transporting different sugars simultaneously” (THE BOARD OF TRUSTEES OF THE UNIVERSITY OF ILLINOIS, priority 2020, dated 2026).

How the values were obtained:
[1] = target: T1, Saccharomyces cerevisiae ScGal2 (Gal2) transporter, SEQ ID NO:32 (Saccharomyces cerevisiae, UniProt P13181); test: C14 labeled sugar uptake assay (zero-trans influx), SR8D8 expressing ScGal2; format: cell-based; conditions: initial glucose uptake (5 s), 30° C., pH 6.5
T1 construct: expressed in transfected cells; host or cells: S. cerevisiae SR8D8 (SR8 with HXT1-7 and GAL2 deleted), plasmid p42K-GPD1p-CYC1t
T1 sequence (P13181 1-574): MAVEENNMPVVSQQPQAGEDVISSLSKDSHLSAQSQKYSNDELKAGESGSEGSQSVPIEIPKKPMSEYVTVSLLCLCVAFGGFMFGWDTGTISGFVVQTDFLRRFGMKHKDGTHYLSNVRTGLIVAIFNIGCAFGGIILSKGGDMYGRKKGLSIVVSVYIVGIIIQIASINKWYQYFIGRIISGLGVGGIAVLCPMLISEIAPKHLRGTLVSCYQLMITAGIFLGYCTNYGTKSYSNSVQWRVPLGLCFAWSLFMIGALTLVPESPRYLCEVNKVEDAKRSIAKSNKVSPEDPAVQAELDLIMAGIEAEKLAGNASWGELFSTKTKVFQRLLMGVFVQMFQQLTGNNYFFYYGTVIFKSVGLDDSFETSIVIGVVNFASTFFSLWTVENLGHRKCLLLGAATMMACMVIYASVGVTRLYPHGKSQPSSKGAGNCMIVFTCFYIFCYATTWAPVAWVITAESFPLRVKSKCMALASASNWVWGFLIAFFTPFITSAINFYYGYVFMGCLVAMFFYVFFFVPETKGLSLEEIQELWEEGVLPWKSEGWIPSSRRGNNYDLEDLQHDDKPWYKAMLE
Method: FIG. 7A illustrates sugar uptake kinetics by SR8D8. FIG. 7B illustrates sugar uptake kinetics by SR8D8 expressing AtSWEET1. FIG. 7C illustrates sugar uptake kinetics by SR8D8 expressing ScGal2. FIG. 7D illustrates sugar uptake kinetics by SR8D8 expressing AtSWEET7. FIG. 7E illustrates sugar uptake kinetics by SR8D8 expressing LST1_205437. Initial xylose uptake (20 s) was measured at 30° C. over a concentration range of 1 to 500 mM xylose. FIG. 7F illustrates sugar uptake kinetics by SR8D8. FIG. 7G illustrates sugar uptake kinetics by SR8D8 expressing AtSWEET1. FIG. 7H illustrates sugar uptake kinetics by SR8D8 expressing ScGal2. FIG. 7I illustrates sugar uptake kinetics by SR8D8 expressing AtSWEET7. FIG. 7J illustrates sugar uptake kinetics by SR8D8 expressing LST1_205437. Initial glucose uptake (5 s) was measured at 30° C. over a concentration range of 0.2 to 100 mM glucose. Curve fitting for Michaelis-Menten kinetics was applied to data of three independent measurements at each concentration.
A xylose fermenting S. cerevisiae yeast (SR8) with HXT1-7Δ, GAL2Δ deletions was used for transporter screening and characterization (SR8D8). SR8D8 was grown in YPE medium/plate (10 g/L yeast extract, 20 g/L peptone, and 5 g/L ethanol). […] Biomass was calculated from the OD600 measured using a Biomate 5 UV-visible spectrophotometer (Fisher, NY, USA). All growth rates were measured using a Bioscreen C plate reader system (Growth Curves USA, Piscataway, NJ, USA). […]
SR8D8 containing the respective plasmid was grown on selective YPE medium to an OD600 of 1-1.5, harvested by centrifugation, and washed twice in ice-cold uptake buffer (100 mM potassium phosphate, pH 6.5). […] Radioactivity was analyzed in a Beckman-Coulter LS6500 multi-purpose liquid scintillation counter (Beckman-Coulter, CA, USA).
Uptake was measured at sugar concentrations 0.2, 1, 5, 25, and 100 mM for glucose and 1, 5, 25, 66, 100, 200, and 500 mM for xylose. Inhibition of xylose uptake by glucose was measured at 25, 66, and 100 mM xylose with additional 25 and 100 mM unlabeled glucose.

[2] = target: T1, Saccharomyces cerevisiae ScGal2 (Gal2) transporter, SEQ ID NO:32; test: Inhibition of xylose uptake by glucose, SR8D8 expressing ScGal2; format: cell-based; conditions: in words
Method: Symbols: glucose (square), xylose (triangle up), DCW (circle), ethanol (triangle down), glycerol (diamond). […] Global curve fitting for Michaelis-Menten kinetics with competitive inhibition was applied to data of three independent measurements at each concentration.
SR8D8 containing the respective plasmid was grown on selective YPE medium to an OD600 of 1-1.5, harvested by centrifugation, and washed twice in ice-cold uptake buffer (100 mM potassium phosphate, pH 6.5). C14 labeled sugar uptake assay was done according to Boles and Oreb. Radioactivity was analyzed in a Beckman-Coulter LS6500 multi-purpose liquid scintillation counter (Beckman-Coulter, CA, USA).
Sugar solutions contained 0.135-0.608 μCi of D-[U-^14C]-glucose (290-300 mCi/mmol) or D-[1-^14C]-xylose (55 mCi/mmol) (PerkinElmer, MA, USA). Calculation of Km (Michaelis constant), Vmax (maximal initial uptake velocity), and K (inhibitor constant for competitive inhibition) was done by nonlinear regression analysis and global curve fitting in Prism 7 (GraphPad Software) with values of three independent measurements.

SMILES: OC[C@H]1OC(O)[C@H](O)[C@@H](O)[C@@H]1O (stereo partly shown) [Glucose]
- Vmax (glucose) [1]: 38.33 nmol/min/mg
- Vmax (glucose) ([1]; cell wet weight, ± SEM): 38.3 ± 1.4 nmol/min/mg
- inhibition of xylose transport by glucose ([2]; 25 mM glucose): complete xylose inhibition
- inhibition of xylose transport by glucose ([2]; 25 mM or 100 mM glucose): completely inhibited
